We go through five compounds from patent US8410138B2, “Compounds for activating TGF-beta signaling” (The Board of Trustees of the Leland Stanford Junior …, priority 2007, dated 2013).

Data set [1] has as its system HDAC activity in HeLa nuclear extracts (HDAC 1, HDAC 2, SIRT 1). Conditions: FIG. 8B. The source says:
A commercially available assay was used to measure HDAC inhibitory activity of the present small-molecule compounds.

The next data set in a line: Dissolution in PBS. The class given is physicochemical. The procedure: (§1) SBE-luc mice (T9-7F), 2-4 months of age, 4-5 mice per group, were given either the 11H compound at 30 mg/kg via i.p. injections, or PBS as a control. The 11H compound was completely dissolved in PBS at the concentration of 3 mg/ml. This working solution was given to mice at 10 μl/g body weight to achieve the desired level of 30 mg/kg. Five hours following drug or PBS injection, mice were anesthetized with chloral hydrate and perfused with saline. Brains were dissected and snap-frozen. Hippocampal tissues were homogenized in 100 μl of 1× luciferase assay buffer and 20 μl of the resulting supernatant was used for luciferase assays.

In data set [2] the test system is TGF-β reporter gene in hippocampus. In words: Luciferase activity in SBE-luc mouse hippocampus. Format: in vivo. Particulars: 30 mg/kg i.p.; five hours after injection; SBE-luc mice. The protocol: In another experiment performed to asses the ability of the present compounds to activate TGF-β signaling in animals, SBE-luc mice were given either PBS or the 11H compound via i.p. injections as described in Example 10. Following drug or PBS injection, mice were anesthetized with chloral hydrate and perfused with saline. Brains were dissected and snap-frozen. Hippocampal tissues were assayed for luciferase activity.
as §1

Data set [3] relates to fibroblasts lacking Smad2, Smad3 or Smad4. In words: SBE reporter signaling in fibroblasts lacking elements of the TGF-β signaling pathway. The class given is cell-based. Particulars: Smad2 (FIG. 2B) or Smad3 knock-out fibroblasts. The source says: To understand how the TGF-β signaling agonists function and identify molecular genetic targets in cells, fibroblasts lacking different elements of the TGF-β3 signaling pathway, including Smad2, Smad3, and Smad4, were used in combination with plasmids encoding different inhibitors of the TGF-β signaling pathway to study TGF-β agonists in different backgrounds. For reference, the canonical TGF-β signaling pathway is illustrated in FIG. 2A. The biological actions of TGF-β1 are mediated through interactions with the type 2 TGF beta receptor (TBR2) 2 and the type I TGF beta receptor (TBRI) 3. Betaglycan 4 may participate in the binding of TGF-β1. Receptor activation leads to the phosphorylation of Smad proteins, such as Smad 2/3 5 and Smad 4 6, which translocate to the nucleus 7 to bind to the Smad DNA-binding element (SBE) 8, present in numerous genes, in combination with transcription factors (TF) 9. Smad 7 10 is inhibitory with respect to Smad 2/3 5 phosphorylation. Alternative signaling involves p38 11 and the MAP kinase pathway. TAB1 12 activates TAK1 13, which activates p38 11.
Because Smad2 and Smad3 can substitute for each other, results with Smad2 or Smad3 knock-out fibroblasts were more difficult to interpret. Nonetheless, the synergistic effect of TGF-β1 and 11H was blocked in the absence of Smad2 (FIG. 2B) or Smad3 (not shown). In these assays, signaling is reported via SBE elements, which are specific elements that bind Smad proteins. Thus, the 11H compound must signal through this element. Without being limited to theory, it is believed that the 3A compound functions as a competitive agonist of Smad binding to the SBE, representing a novel target and mode of action.

For data set [4], the system named is TGF-β signaling (SBE-SEAP reporter) in MFB-F11 cells. Format: cell-based, mouse. Conditions: for Relative TGF-β activity, fold change compared with vehicle: cell reporter assay. The protocol:
All compounds were tested twice, in duplicate, using the MFB-F11 cell line. 80 compounds were selected for further study based on induction of the reporter gene in any of the replicates. These compounds were tested again in MFB-F11 or C6-H4 cells, either alone or in the presence of 100 pg/ml of TGF-β1, to test for synergistic activities.

Data set [5] concerns TGF-β signaling (SBE-luc reporter) in brain. In words: Bioluminescence and tissue luciferase in SBE-luc reporter mice. Format: in vivo, mouse. Particulars: i.p. or s.q. injection; FIG. 3D. The text has this:
Transgenic mice harboring the SBE-luc reporter gene were generated and used to test the present compositions in vivo. These “reporter mice” mice express SBE-luc (i.e., “the transgene”) in all cells of the body.^1,54 Intraperitoneal injection of luciferin into SBE-luc mice produces bioluminescence generated by luciferase and photons penetrating the skull can be imaged using sensitive camera systems.^1,54
To determine whether 3A and its analogs are bioactive in vivo and able to penetrate the blood brain barrier (BBB), TGF-β1, 3A, 22B02, or 13A04 were injected into reporter mice i.p. or s.q. The animals were then sacrificed at the indicated times following injection. […] There was no obvious activation of the reporter in other organs.
Bioactivity data were confirmed by biochemical measurements of tissue luciferase in hippocampal homogenates (FIG. 3E).
Two-month old SBE-luciferase transgenic mice receive different concentrations of a test compound either s.q., i.p., or orally by gavage. […] Following administration of the test or control compounds, mice are injected with luciferin i.p. At, e.g., 2, 8, and 16 hours following injection of luciferin, the mice are imaged to detect bioluminescence as described above. Brains may be harvested 16 hours following test compound injection, and may be divided sagittally. […]

Data set [6] has as its system TGF-β signaling in hippocampal neurons. In words: RFP immunohistochemistry in SBE-lucRT reporter mice. Format: in vivo, mouse. The source says:
To study TGF-β signaling at the cellular level, additional reporter mice were generated, which express a fusion protein consisting of luciferase, red fluorescent protein […], and thymidine kinase (TK) under control of the SBE promoter (i.e., SBE-lucRT mice).

The test system of a further data set is Aβ deposition. Kind of data set: APP-T41 mice treated for 10 days, Aβ immunostaining. The class given is in vivo. Particulars: 5-month-old APP-T41 mice, i.p. for 10 days. The protocol: In a further experiment, a group of 5-month-old APP-T41 mice were treated with vehicle or 13A04 (i.p.) for 10 days. At this age, the mice are starting to deposit Aβ which can be quantified in brain sections using Aβ immunostaining.
Transgenic mice that overproduce FAD-mutant human APP reproduce important aspects of AD, including amyloid plaques, neurodegeneration, and cognitive deficits. APP-T41 mice which overexpress APP751^V717I, K670M/N671L in neurons develop amyloid pathology, neurodegeneration, and cognitive deficits.^43,44 Mice overexpressing human tau protein associated with familial forms of fronto-temporal dementia (a dementia characterized by extensive tangle formation) develop neurofibrillary tangles similar to the ones observed in AD and suffer from locomotor deficits around 10 months of age.^45 APP-T41 and Prp-tau^P301L mice^45 can be used to determine the in vivo efficacy of test compounds in treating AD-like diseases.
Compounds can also be tested for their ability to reverse cognitive deficits.

The test system of data set [7] is TGF-β-responsive genes in MFB-F11 fibroblasts. Kind of data set: Microarray of TGF-β pathway gene expression in tgfb1−/− fibroblasts. The class given is cell-based, mouse. Particulars: 1, 5, 24 hours. The protocol: (§2) FIG. 1H is a graph showing the relative amount of surviving 6-7 DIV hippocampal neurons of E16 mice following exposure to culture medium (CM) alone, 13A04 (3 μM), or CM containing Aβ at 2 or 5 μM with TGF-β1 (10 ng/ml) or 13A04 (3 μM). After 24 hours, cultures were fixed and surviving cells were counted. Data represent mean±SEM, n=3-7 fields counted per plate. All conditions were compared to Aβ using the Mann-Whitney test (* p<0.05, ** p<0.01). FIG. 1I is a graph showing the relative gene expression levels of the indicated TGF-β-responsive genes induced in MFB-F11 fibroblasts stimulated with TGF-β1 (yellow) or 13A04 (blue) for 24 h. mRNA was extracted, labeled and hybridized to gene expression arrays tailored for the TGF-β pathway.
A microarray assay was used to identify changes in gene expression caused by stimulating tgfb1^−/− fibroblasts with TGF-β1 or 13A04. mRNA was harvested 1, 5, and 24 hours following stimulation of tgfb1^−/− fibroblasts with TGF-β1 (or control) and analyzed for differential expression of 128 genes related to TGF-β signaling, using a commercially available filter array (Superarray Bioscience Corp.; FIG. 1I). […]

The subject of data set [8] is primary hippocampal neurons from E16 mouse embryos. The class given is cell-based. Particulars: Aβ oligomers inducing 50-70% cell death; 13A04 3 μM, TGF-β1 10 ng/ml; 24 hours. The procedure: as §2
Moreover, the small-molecule TGF-β agonist was not toxic at 3 μM and 10 μM (not shown).
Primary mixed neuronal cultures are exposed to Aβ oligomers and treated with compounds (0 to 10 μM concentration) and cell survival is measured using lactate dehydrogenase (LDH) release or by counting 4,6-diamidino-2-phenylindole (DAPI)-stained cells. […] Neuritic dystrophy in 21 DIV neurons can also be measured by quantifying the tortuosity of neurites as described by Ferreira et al.^70 and modified by others. […] Further incubation of these cells with the present compounds provides a sensitive assay for neuroprotection.

The subject of a further data set is HDAC 1 and 2. Conditions: read-out: 1050 (HDAC 1 and 2 inhibition); cited from earlier work.
For data set [9], the system named is TGF-β signaling in the brain. In words: SBE-luc mice after lipopolysaccharide (LPS) administration. Format: in vivo, mouse. The source says:
SBE-luc mice can also be used to monitor activation of TGF-β signaling in response to glial activation after lipopolysaccharide (LPS) administration.

pIC50: −log10 of the molar value. Where two headings read alike, the source gives them in different places.

As for trichostatin A, the “Reduction of HDAC activity” value in data set [1] was greater than 90%.
Take `C/C(=C\c1ccccc1)CN(CC1CCNCC1)C(=O)NC1CCCCC1` [Compound 11H, (E)-3-cyclohexyl-1-(2-methyl-3-phenylallyl)-1-(piperidin-4-ylmethyl)urea]: the “Concentration completely dissolved in PBS” value in the data set “Dissolution in PBS” is no less than 3000 µg/mL. Further, the “Activation of the TGF-β reporter gene in hippocampi compared to PBS” value in [2] is “twice the levels”. For the same compound, in [3], the “Synergistic effect with TGF-β1 in the absence of Smad2 or Smad3” value is reported as “blocked”. Besides, in data set [4] (data of FIGS. 1A-1J), the TGF-β agonist activity entry is “TGF-β-agonists”.
For `CC(C)CN(CC(=O)N(CCc1c[nH]c2ccccc12)Cc1ccccc1)C(=O)c1ccco1` [Compound 13A04], the “Reporter activation (bioluminescence) in living mice” value in data set [5] was “dose-dependent manner”. The “TGF-β signaling in the vasculature” value in data set [6] is on record as “No activation”. In addition, in data set [6] (RFP immunohistochemistry), the “Reporter gene and TGF-β signaling in hippocampal neurons” value is “activates the reporter gene and TGF-β signaling in hippocampal neurons”. Further, in the data set with Aβ deposition, the “Tolerability / side effects” value is “well tolerated and no side effects were observed”. In the data set with Aβ deposition (not statistically significant), the “Aβ deposition versus controls” value is recorded as “trend towards reduced Aβ deposition”. The “Expression of TGF-β signaling genes (Fos, Jun, Myc, Smad1, Smad2, Smad3, Interleukin-6)” value in [7] is given as “induced”. Also, the “Relative TGF-β activity, fold change compared with vehicle” value in [4] (3 μM) turned out to be 2.5 fold; in data set [4] (10 μM), 6.3 fold; in [4] (30 μM), 17.6 fold; in [4] (100 μM), 20.9 fold. The “Protection of neurons against Aβ toxicity (survival)” value in data set [8] is “consistently protected neurons and increased survival”.
Turning to `N#Cc1ccc(-c2ccc(OCCCCCCC(=O)NO)cc2)cc1` [Compound A-161906], the pIC50 in the data set on HDAC 1 and 2 was 8.05.
`CC(C(=O)O)c1ccc(-c2ccccc2)c(F)c1` (stereo not shown) [flurbiprofen]: the “TGF-β signaling in the brain after LPS (bioluminescence)” value in data set [9] (FIG. 4E) is listed as “strongly reduced”. In addition, the “Microglial activation after LPS” value in data set [9] (data not shown) was “strongly reduced”.
